ChEMBL document CHEMBL1201862, “PubChem BioAssay data set” (2004)
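In this assay, cells in 96-well plates receive the compound at five concentrations for 48 hours. Endpoints are linearly interpolated between the surrounding concentrations. At the GI50, growth is halved.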 Calls of active or inactive are those of the source. Rule as the data show it: active = GI50 up to about 1.1 µM and inactive = higher.

Key:
Assay in all cases: NCI anticancer screen, dose series, 48 h
A498 = test system: A498
A549 = test system: A549
CCRF-CEM = test system: CCRF-CEM
DMS-114 = test system: DMS-114
EKVX = test system: EKVX
HCT-116 = test system: HCT-116
HL-60 = test system: HL-60
HOP-92 = test system: HOP-92
HT-29 = test system: HT-29
IGROV-1 = test system: IGROV-1
K562 = test system: K562
MOLT-4 = test system: MOLT-4
NCI-H23 = test system: NCI-H23
NCI-H522 = test system: NCI-H522
RPMI-8226 = test system: RPMI-8226
TK-10 = test system: TK-10
UACC-62 = test system: UACC-62
RXF 393 = test system: RXF 393

Measured: GI50

O=C(CCC(=O)C(C(=O)c1ccccc1)c1ccccc1)Nc1cccc(C(F)(F)F)c1 (stereo not given)
inactive: A498 > 100 µM | A549 > 100 µM | CCRF-CEM > 100 µM | DMS-114 > 100 µM | EKVX > 100 µM | HCT-116 > 100 µM | HL-60 > 100 µM | HOP-92 > 100 µM | HT-29 > 100 µM | IGROV-1 > 100 µM | K562 > 100 µM | MOLT-4 > 100 µM | NCI-H23 > 100 µM | NCI-H522 > 100 µM | RPMI-8226 > 100 µM | TK-10 > 100 µM | UACC-62 > 100 µM

O=C(Nc1c(O)[nH]c(=S)[nH]c1=O)c1ccccc1
inactive: A498 > 100 µM | A549 > 100 µM | CCRF-CEM > 100 µM | DMS-114 > 100 µM | HCT-116 > 100 µM | HL-60 > 100 µM | HOP-92 > 100 µM | HT-29 > 100 µM | IGROV-1 > 100 µM | K562 > 100 µM | MOLT-4 > 100 µM | NCI-H23 > 100 µM | NCI-H522 > 100 µM | RPMI-8226 > 100 µM | TK-10 > 100 µM | UACC-62 > 100 µM

O=C(NCC#CCO)C(F)(F)F
inactive: A498 > 100 µM | A549 > 100 µM | DMS-114 > 100 µM | EKVX > 100 µM | HCT-116 > 100 µM | HT-29 > 100 µM | IGROV-1 > 100 µM | MOLT-4 > 100 µM | NCI-H23 > 100 µM | NCI-H522 > 100 µM | RXF 393 > 100 µM | TK-10 > 100 µM | UACC-62 > 100 µM

N#CC(C#N)=c1c2nsnc2c(=C(C#N)C#N)c2nsnc12
inactive: A549 3.6 µM | DMS-114 1.91 µM | EKVX 4.2 µM | HCT-116 1.98 µM | HL-60 2.27 µM | HOP-92 1.45 µM | HT-29 1.59 µM | NCI-H23 2.01 µM | NCI-H522 1.96 µM | RXF 393 1.28 µM | TK-10 16 µM

Cc1nc2c(N)ncnc2o1
inactive: A498 > 100 µM | A549 > 100 µM | CCRF-CEM > 100 µM | DMS-114 > 100 µM | EKVX > 100 µM | HCT-116 > 100 µM | HL-60 > 100 µM | HOP-92 > 100 µM | HT-29 > 100 µM | IGROV-1 > 100 µM | K562 > 100 µM | MOLT-4 > 100 µM | NCI-H23 > 100 µM | NCI-H522 > 100 µM | RXF 393 > 100 µM | TK-10 > 100 µM | UACC-62 > 100 µM

COc1c2c(cc3c1C(=O)Cc1ccc4c(c1CN(C)CC3)OCO4)OCO2
inactive: A549 > 100 µM | CCRF-CEM 70.5 µM | DMS-114 39.4 µM | EKVX > 100 µM | HCT-116 52.2 µM | HL-60 30.1 µM | HOP-92 5.71 µM | HT-29 29.4 µM | IGROV-1 18.5 µM | K562 28.8 µM | MOLT-4 36.7 µM | NCI-H23 > 100 µM | NCI-H522 > 100 µM | RPMI-8226 85.3 µM | RXF 393 > 100 µM | TK-10 > 100 µM | UACC-62 > 100 µM

O=[N+]([O-])C(=C(c1ccccc1)c1ccccc1)[N+](=O)[O-]
inactive: A498 14.8 µM | A549 23.1 µM | CCRF-CEM 2.93 µM | DMS-114 18.7 µM | EKVX > 10 µM | HCT-116 11.9 µM | HL-60 3.32 µM | HT-29 > 10 µM | IGROV-1 5.96 µM | K562 20.5 µM | MOLT-4 3.32 µM | NCI-H23 17.4 µM | NCI-H522 15.4 µM | RPMI-8226 2.45 µM | RXF 393 3.69 µM | TK-10 18.6 µM | UACC-62 3.79 µM

O=C(/C=C/c1ccc(OCCCOc2ccc(/C=C/C(=O)c3ccccc3)cc2)cc1)c1ccccc1
inactive: A498 > 100 µM | A549 > 100 µM | CCRF-CEM > 100 µM | DMS-114 > 100 µM | EKVX > 100 µM | HCT-116 77.4 µM | HL-60 > 100 µM | HT-29 > 100 µM | IGROV-1 > 100 µM | K562 > 100 µM | MOLT-4 > 100 µM | NCI-H23 > 100 µM | RPMI-8226 50.7 µM | RXF 393 > 100 µM | TK-10 > 100 µM | UACC-62 > 100 µM

C=CCN1CCC23c4c5ccc(O)c4OC2C(=NN=C2CCC4(O)C6Cc7ccc(O)c8c7C4(CCN6CC=C)C2O8)CCC3(O)C1C5 (stereo not given)
inactive: A498 20.2 µM | A549 21.4 µM | CCRF-CEM 34.8 µM | DMS-114 24.7 µM | EKVX 28.5 µM | HL-60 > 10 µM | HOP-92 17.6 µM | HT-29 18.3 µM | IGROV-1 > 100 µM | K562 26.2 µM | MOLT-4 38.3 µM | NCI-H23 > 100 µM | NCI-H522 31 µM | RPMI-8226 39.2 µM | TK-10 21.6 µM | UACC-62 21 µM

Cc1cc2c(=O)c3ccc(Cl)cc3[nH]c2c(C(=O)O)c1C
inactive: A549 > 100 µM | CCRF-CEM > 100 µM | DMS-114 > 100 µM | EKVX > 100 µM | HCT-116 > 100 µM | HT-29 > 100 µM | IGROV-1 > 100 µM | K562 > 100 µM | MOLT-4 > 100 µM | NCI-H23 > 100 µM | NCI-H522 73.8 µM | RPMI-8226 > 100 µM | RXF 393 47.5 µM | TK-10 > 100 µM | UACC-62 > 100 µM

CCOC(=O)CCn1cnc(N)n1
inactive: A549 > 100 µM | CCRF-CEM > 100 µM | DMS-114 > 100 µM | EKVX > 100 µM | HCT-116 > 100 µM | HL-60 > 100 µM | HOP-92 > 100 µM | HT-29 > 100 µM | IGROV-1 > 100 µM | K562 > 100 µM | MOLT-4 > 100 µM | NCI-H23 > 100 µM | NCI-H522 > 100 µM | RPMI-8226 > 100 µM | RXF 393 > 100 µM | TK-10 > 100 µM | UACC-62 > 100 µM

CCC(C)CCOC(=O)c1ccc(/N=C\c2ccc(/C=N/c3ccc(C(=O)OCCC(C)CC)cc3)cc2)cc1 (stereo not given)
inactive: A498 > 100 µM | A549 > 100 µM | CCRF-CEM > 100 µM | DMS-114 > 100 µM | EKVX 62.2 µM | HCT-116 > 100 µM | HL-60 > 100 µM | HOP-92 > 100 µM | HT-29 > 100 µM | IGROV-1 > 100 µM | K562 > 100 µM | MOLT-4 > 100 µM | NCI-H23 > 100 µM | NCI-H522 > 100 µM | RPMI-8226 > 100 µM | RXF 393 > 100 µM | UACC-62 > 100 µM

CC12CCC(=O)N1c1ccc([N+](=O)[O-])cc1N2 (stereo not given)
inactive: A498 > 100 µM | A549 > 100 µM | CCRF-CEM > 100 µM | DMS-114 > 100 µM | EKVX > 100 µM | HCT-116 > 100 µM | HL-60 92.9 µM | HT-29 > 100 µM | IGROV-1 > 100 µM | K562 > 100 µM | MOLT-4 83.4 µM | NCI-H23 > 100 µM | NCI-H522 > 100 µM | RPMI-8226 > 100 µM | RXF 393 > 100 µM | UACC-62 > 100 µM
